Measured values as given in patent US10246439B2, “Apoptosis signal-regulating kinase 1 inhibitors and methods of use thereof” (ENANTA PHARMACEUTICALS, INC., priority 2017, dated 2019).

Molecular target: T1, ASK1 (Homo sapiens, UniProt Q99683)
T1 construct: purchased Thermofisher PV4011
T1 sequence (Q99683 1-1374): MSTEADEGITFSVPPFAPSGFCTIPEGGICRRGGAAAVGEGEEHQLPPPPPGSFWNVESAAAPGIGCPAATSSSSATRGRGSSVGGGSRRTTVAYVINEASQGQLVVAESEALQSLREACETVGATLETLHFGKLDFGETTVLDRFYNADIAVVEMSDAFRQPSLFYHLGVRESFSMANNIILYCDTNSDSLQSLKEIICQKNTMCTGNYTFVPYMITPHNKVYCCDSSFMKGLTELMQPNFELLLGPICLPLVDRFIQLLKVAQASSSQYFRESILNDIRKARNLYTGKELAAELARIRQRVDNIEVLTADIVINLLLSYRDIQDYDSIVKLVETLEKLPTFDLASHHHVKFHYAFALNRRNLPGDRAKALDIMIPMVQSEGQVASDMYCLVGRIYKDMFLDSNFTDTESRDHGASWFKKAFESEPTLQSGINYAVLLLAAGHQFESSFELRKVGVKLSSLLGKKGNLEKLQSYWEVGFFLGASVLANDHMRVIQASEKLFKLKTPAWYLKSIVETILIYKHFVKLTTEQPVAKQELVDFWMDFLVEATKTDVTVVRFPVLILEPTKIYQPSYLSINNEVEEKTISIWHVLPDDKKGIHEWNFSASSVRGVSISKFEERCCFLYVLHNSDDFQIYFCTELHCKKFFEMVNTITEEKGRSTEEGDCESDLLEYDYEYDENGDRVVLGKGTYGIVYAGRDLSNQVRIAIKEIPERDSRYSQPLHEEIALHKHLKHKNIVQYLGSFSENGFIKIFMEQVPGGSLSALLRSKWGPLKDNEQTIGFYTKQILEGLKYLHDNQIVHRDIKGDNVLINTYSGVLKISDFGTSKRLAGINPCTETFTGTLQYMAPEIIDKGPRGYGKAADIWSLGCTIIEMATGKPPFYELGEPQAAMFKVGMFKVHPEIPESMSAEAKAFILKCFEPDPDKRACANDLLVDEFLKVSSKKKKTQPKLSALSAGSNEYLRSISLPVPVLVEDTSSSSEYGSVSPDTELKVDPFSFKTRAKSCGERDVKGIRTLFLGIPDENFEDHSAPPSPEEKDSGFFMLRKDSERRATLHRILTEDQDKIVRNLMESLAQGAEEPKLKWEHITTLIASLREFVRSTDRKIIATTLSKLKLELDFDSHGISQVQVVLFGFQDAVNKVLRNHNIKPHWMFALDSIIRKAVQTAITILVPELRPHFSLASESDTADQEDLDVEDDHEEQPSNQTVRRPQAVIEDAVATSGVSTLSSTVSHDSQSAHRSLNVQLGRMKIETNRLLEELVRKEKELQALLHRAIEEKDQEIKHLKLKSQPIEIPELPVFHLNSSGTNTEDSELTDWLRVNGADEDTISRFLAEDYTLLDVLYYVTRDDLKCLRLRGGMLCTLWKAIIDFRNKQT
Assay: HTRF KinEASE-STK TR-FRET kinase assay, inhibition of ASK1
Format: biochemical
Settings: 5 nM ASK1, 1 uM STK3 peptide substrate, 100 uM ATP
Protocol: ASK1 was purchased from Thermofisher (Catalogue # PV4011), ATP was purchased from Sigma (Catalogue # A7699), HTRF® KinEASE™ Assay System was obtained from Cisbio (Bedford, Mass.). ½ Area plate was purchased from Perkin Elmer (Catalogue # #6005560). HTRF® KinEASE™-STK is a generic method for measuring serine/threonine kinase activities using a time-resolved fluorescence resonance energy transfer (TR-FRET) immunoassay. The IC50 value for each compound was determined in the presence of compound (various concentration from 0 to 10 μM) and a fixed amount of ATP and peptide substrates. The test compound, 1 uM STK3 peptide substrate, and 5 nM of ASK1 kinase are incubated with kinase reaction buffer containing 50 mM HEPES pH 7.5, 0.01% BRIJ-35, 10 mM MgCl2, and 1 mM EGTA for 30 minutes. 100 uM ATP is added to start kinase reaction and incubated for 3 hours. The STK3-antibody labeled with Eu^3+-Cryptate and 125 nM streptavidin-XL665 are mixed in a single addition with stop reagents provided by the Cisbio kit used to stop the kinase reaction. Fluorescence is detected using an Envision Multilabeled 2014 reader from PerkinElmer. The Fluorescence is measured at 615 nm (Cryptate) and 665 nm (XL665) and a ratio of 665 nm/615 nm is calculated for each well. The resulting TR-FRET is proportional to the phosphorylation level. Staurosporine was used as the positive control. IC50 was determined by XLfit 5.3.

SMILES	IC50
CC(C)n1nnnc1-c1cccc(NC(=O)c2cc3sc(N(C)CC4CC4)nc3cc2F)n1 [Example 39]	> 1000 nM
CC(C)n1nnnc1-c1cccc(NC(=O)c2cc3sc(N(C)C)nc3cc2F)n1 [Example 5]	10 to 100 nM
CC(C)n1cnnc1-c1cccc(NC(=O)c2cc3sc(N4CCCC4)nc3cc2F)n1 [Example 50]	1 to 10 nM
CNc1nc2cc(F)c(C(=O)Nc3cccc(-c4nncn4C(C)C)n3)cc2s1 [Example 49, 5-fluoro-N-(6-(4-isopropyl-4H-1,2,4-triazol-3-yl)pyridin-2-yl)-2-(methylamino)benzo[d]thiazole-6-carboxamide]	1 to 10 nM
CC(C)n1cnnc1-c1cccc(NC(=O)c2cc3sc(NCC4CC4)nc3cc2F)n1 [Example 48]	10 to 100 nM
CC(C)n1cnnc1-c1cccc(NC(=O)c2cc3sc(C4CC4)nc3cn2)n1 [Example 63, 2-cyclopropyl-N-(6-(4-isopropyl-4H-1,2,4-triazol-3-yl)pyridin-2-yl)thiazolo[4,5-c]pyridine-6-carboxamide]	10 to 100 nM
CC(C)n1cnnc1-c1cccc(NC(=O)c2cc3sc(N(C)CC4CC4)nc3cc2F)n1 [Example 11]	1 to 10 nM
CCCCNc1nc2cc(F)c(C(=O)Nc3cccc(-c4nncn4C(C)C)n3)cc2s1 [Example 27]	1 to 10 nM
CC(C)n1cnnc1-c1cccc(NC(=O)c2cc3sc(N4CCCCC4)nc3cn2)n1 [Example 66, N-(6-(4-isopropyl-4H-1,2,4-triazol-3-yl)pyridin-2-yl)-2-(piperidin-1-yl)thiazolo[4,5-c]pyridine-6-carboxamide]	1 to 10 nM
CCN(CC)c1nc2cc(F)c(C(=O)Nc3cccc(-c4nncn4C(C)C)n3)cc2s1 [Example 13]	1 to 10 nM
CC(C)n1nnnc1-c1cccc(NC(=O)c2cc3sc(NC4CCCCC4)nc3cc2F)n1 [Example 34]	> 1000 nM
CC(C)n1cnnc1-c1cccc(NC(=O)c2ccc3nc(N4CCN(C5CC5)CC4)sc3c2)n1 [Example 55]	100 to 1000 nM
CC(C)n1cnnc1-c1cccc(NC(=O)c2ccc3nc(N4CCC(F)(F)CC4)sc3c2)n1 [Example 19]	10 to 100 nM
CC(C)n1nnnc1-c1cccc(NC(=O)c2cc3sc(C4CCC4)nc3cn2)n1 [Example 69]	> 1000 nM
CC(C)n1nnnc1-c1cccc(NC(=O)c2cc3sc(N4CCCCC4)nc3cn2)n1 [Example 62]	> 1000 nM
CC(C)n1cnnc1-c1cccc(NC(=O)c2ccc3nc(N4CCCC4)sc3c2)n1 [Example 20]	100 to 1000 nM
CC(C)n1nnnc1-c1cccc(NC(=O)c2cc3sc(N4CCN(C(C)(C)C)CC4)nc3cn2)n1 [Example 71]	100 to 1000 nM
CC(C)n1cnnc1-c1cccc(NC(=O)c2ccc3ncsc3c2)n1 [Example 2, N-(6-(4-isopropyl-4H-1,2,4-triazol-3-yl)pyridin-2-yl)benzo[d]thiazole-6-carboxamide]	100 to 1000 nM
CC(C)n1cnnc1-c1cccc(NC(=O)c2cc3sc(N4CCOCC4)nc3cc2F)n1 [Example 16]	1 to 10 nM
CC(C)n1cnnc1-c1cccc(NC(=O)c2cc3sc(NC4CCCCC4)nc3cc2F)n1 [Example 26]	1 to 10 nM
CC(C)n1cnnc1-c1cccc(NC(=O)c2cc3sc(C4CCC4)nc3cc2F)n1 [Example 37]	10 to 100 nM
CC(C)n1cnnc1-c1cccc(NC(=O)c2ccc3nc(N4CCC4)sc3c2)n1 [Example 21]	100 to 1000 nM
CC(C)n1nnnc1-c1cccc(NC(=O)c2cc3sc(N4CCN(C(C)(C)C)CC4)nc3cc2F)n1 [Example 3, 2-(4-(tert-butyl)piperazin-1-yl)-5-fluoro-N-(6-(1-isopropyl-1H-tetrazol-5-yl)pyridin-2-yl)benzo[d]thiazole-6-carboxamide]	> 1000 nM
CC(C)n1cnnc1-c1cccc(NC(=O)c2cc3sc(N(C)C4CCCCC4)nc3cc2F)n1 [Example 8]	1 to 10 nM
CC(C)n1cnnc1-c1cccc(NC(=O)c2ccc3nc(N(C)C)sc3c2)n1 [Example 23]	10 to 100 nM
CC(C)n1nnnc1-c1cccc(NC(=O)c2cc3sc(N(C)C4CC4)nc3cc2F)n1 [Example 32]	> 1000 nM
CC(C)n1cnnc1-c1cccc(NC(=O)c2cc3sc(N4CCN(C(C)(C)C)CC4)nc3cc2F)n1 [Example 15]	10 to 100 nM
